Laboratory results: publication PMC4014072 (Molecular and cellular biochemistry, 2010)

Molecular target: LdLip3::HA (LdLip3 secretory lipase) (Leishmania donovani, UniProt D7P7V3)
Assay: fluorogenic 4MU release assay, anti-HA affinity-purified enzyme
Format: biochemical
Conditions: 150 µM substrate, McIlvaine buffer pH 6.0, 37 and 42 °C, 30 min

## CCCCCCCCCCCCCCCCCC(=O)Oc1ccc2c(C)cc(=O)oc2c1 [4MU-stearate]
  fluorogenic 4MU release assay, anti-HA affinity-purified enzyme: LdLip3∷HA chimeric protein and pKSNEO controls were subsequently analyzed for lipase activity using 4MU-stearate
